Data on 9 compounds can be found in ChEMBL document CHEMBL1201862, “PubChem BioAssay data set” (2004).

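Dose response: 5 concentrations. Exposure: 48 h. Format: 96-well plates. Endpoint: linear interpolation; highest concentration if not reached. The concentration for 50% growth inhibition is given as GI50.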 Calls of active or inactive are those of the source. No stated cut-off is given here; in the data, active = GI50 up to about 1.1 µM and inactive = higher. Non-standard residues stand in square brackets, D forms with d. Residues, ends and D or L forms follow the SMILES beside them. ξ: configuration not given here. ξLac(3-iPr) = CC(C)CC(O)C(=O)O; NMeV = CN[CH](C(=O)O)C(C)C; NMeA = CN[CH](C)C(=O)O; βAla = NCCC(=O)O

Common to all, as to assay: NCI tumour cell line growth inhibition, 48 h
Test [1] deals with UO-31.
Test [2] has as its system A498.
The subject of test [3] is HL-60.
For test [4], the system named is MDA-MB-435.
Test [5] relates to NCI-H460.
Test [6] deals with T47D.
Test [7] concerns NCI-H23.
Test [8] deals with RPMI-8226.
Test [9] relates to NCI-H226.
The subject of test [10] is SNB-75.
The subject of test [11] is OVCAR-5.
The test system of test [12] is A549.
Test [13] has as its system LOX IMVI.
Test [14] concerns K562.
For test [15], the system named is ACHN.
For test [16], the system named is SF-539.
Test [17] has as its system MOLT-4.
Test [18] has as its system CCRF-CEM.
For test [19], the system named is Malme-3M.
For test [20], the system named is SW-620.

Consider `Cc1cc(O)c(-c2cc(O)c(C)cc2O)cc1O`, for which the GI50 in test [1] is 1.92 µM (inactive); in [2] it was 21 µM (inactive); in test [3], 1.71 µM (inactive); in test [4], 3.05 µM (inactive); in [5], 18.7 µM (inactive); in test [6], 2.43 µM (inactive). The GI50 is 10.5 µM (inactive) in test [7]; 1.66 µM (inactive) in test [8]; 18.7 µM (inactive) in [9]; 14.9 µM (inactive) in [10]; 16.6 µM (inactive) in test [11]; 17.8 µM (inactive) in test [12]. The GI50 in test [13] was 5.66 µM (inactive); in test [14], 1.86 µM (inactive); in test [15], 3.94 µM (inactive); in [16], 3.02 µM (inactive); in [17], 2.06 µM (inactive); in [18], 1.08 µM (active). Further, the figures for the GI50 in [19] and in test [20] were 11.1 µM (inactive) and 2.34 µM (inactive), respectively.

Consider `CCOC(=O)c1c(CN2CCNCC2)nc2ccc(Cl)cc2c1-c1ccccc1`, for which the GI50 in test [1] was 3.32 µM (inactive); in test [2], 7.26 µM (inactive); in [3], 1.98 µM (inactive); in test [4] it was 2.31 µM (inactive); in [5] it was 2.48 µM (inactive); in test [6], 4.82 µM (inactive). Besides, the GI50 is 10.4 µM (inactive) in test [7]; 2.19 µM (inactive) in test [8]; 12.6 µM (inactive) in test [9]; 2.37 µM (inactive) in test [10]; 19.5 µM (inactive) in [11]; 5.31 µM (inactive) in test [12]. The GI50 in [13] was 1.85 µM (inactive); in [14], 2.14 µM (inactive); in [15] it was 5.45 µM (inactive); in test [16] it was 2.56 µM (inactive); in test [17], 1.86 µM (inactive); in test [18], 2.51 µM (inactive). Further, the GI50 in test [19] was 1.94 µM (inactive); in test [20] it was 2.03 µM (inactive).

In the case of `OCC(O)C1OC2CC1Nc1ccccc1N2` (stereo not given), the GI50 in test [1] was > 100 µM (inactive); in test [2] it was 8.85 µM (inactive); in [3], > 100 µM (inactive); in test [4] it was > 100 µM (inactive); in test [5], > 100 µM (inactive); in [6], > 100 µM (inactive). In addition, the GI50 was > 100 µM (inactive) in test [7]; > 100 µM (inactive) in [8]; > 100 µM (inactive) in test [9]; > 100 µM (inactive) in test [10]; > 10 µM (inactive) in [11]; > 100 µM (inactive) in test [12]. Moreover, the GI50 in [13] is > 100 µM (inactive); in [14], > 100 µM (inactive); in [15] it was > 100 µM (inactive); in test [16], > 88.7 µM (inactive); in [17], > 100 µM (inactive); in test [18] it was 78.2 µM (inactive). Further, the GI50 in test [19] and in [20] was > 100 µM (inactive) throughout.

As to `CC(C)(C)c1cc(OCc2nnc3sc(S)nn23)c(Cl)cc1OCc1nnc2sc(S)nn12`, the GI50 in test [1] is 43.9 µM (inactive); in test [2], 39.6 µM (inactive); in test [3], 22.5 µM (inactive); in test [4], 23.6 µM (inactive); in test [5], 29 µM (inactive); in [6], 19 µM (inactive). In addition, the GI50 in test [7] was 28.7 µM (inactive); in test [8] it was 30.7 µM (inactive); in test [9], > 100 µM (inactive); in test [10], 38.8 µM (inactive); in test [11], 35.2 µM (inactive); in [12] it was 35.1 µM (inactive). Also, the GI50 in test [13] was 18.4 µM (inactive); in test [14], 32.6 µM (inactive); in test [15], 26.1 µM (inactive); in test [16], 35.7 µM (inactive); in test [17] it was 23.8 µM (inactive); in [18], 11.3 µM (inactive). Also, the figures for the GI50 in test [19] and in test [20] were 16.6 µM (inactive) and 31.9 µM (inactive), respectively.

On to `CCCCNS(=O)(=O)c1n[nH]c(=O)[nH]c1=O`, for which the GI50 in test [1], in test [2], in test [3], in [4], in [5] and in test [6] was > 100 µM (inactive) in each case. The GI50 in test [7] is > 100 µM (inactive); in [8], > 100 µM (inactive); in [9] it was > 100 µM (inactive); in [10] it was 82.6 µM (inactive); in test [11], > 100 µM (inactive); in test [12], > 100 µM (inactive). The GI50 was > 100 µM (inactive) in test [13]; > 100 µM (inactive) in [14]; > 100 µM (inactive) in test [15]; > 100 µM (inactive) in test [16]; > 100 µM (inactive) in [17]; 14.1 µM (inactive) in test [18]. In addition, the GI50 in [19] and in test [20] was > 100 µM (inactive) throughout.

In the case of `CN(C)c1ccc(/C=N/c2ccc(-c3nc4ccccc4[nH]3)cc2)cc1`, the GI50 in [1] was 56.4 µM (inactive); in test [2], 69.5 µM (inactive); in test [3], 24.7 µM (inactive); in [4], > 100 µM (inactive); in [5], 51.8 µM (inactive); in [6], 31.3 µM (inactive). The GI50 in test [7] was > 100 µM (inactive); in [8], 36.1 µM (inactive); in test [9] it was > 100 µM (inactive); in test [10], 33.7 µM (inactive); in test [11] it was > 100 µM (inactive); in test [12] it was > 100 µM (inactive). Besides, the GI50 in test [13] is 51.5 µM (inactive); in test [14] it was 35 µM (inactive); in test [15], 59.3 µM (inactive); in test [16] it was 90.4 µM (inactive); in test [17] it was 25.7 µM (inactive); in [18], 37.7 µM (inactive). Moreover, the GI50 in test [19] is 24.3 µM (inactive); in test [20] it was 32.4 µM (inactive).

Take `COc1ccc(CN/C=N/C(C#N)=C(\N)C#N)cc1OC`: the GI50 in [1] is 65 µM (inactive); in test [2], 54.8 µM (inactive); in test [3], > 100 µM (inactive); in [4], > 100 µM (inactive); in test [5], > 100 µM (inactive); in test [6], 83.6 µM (inactive). Also, the GI50 in test [7] was > 100 µM (inactive); in test [8], > 100 µM (inactive); in test [9], > 100 µM (inactive); in test [10], 76.7 µM (inactive); in test [11] it was > 100 µM (inactive); in test [12], > 100 µM (inactive). In addition, the GI50 in test [13], in test [14], in [15], in test [16], in test [17] and in test [18] was > 100 µM (inactive) throughout. Further, the GI50 in [19] and in test [20] was > 100 µM (inactive) in each case.

With `CCC(C)C1NC(=O)C2CCCN2C(=O)C(CC(C)C)OC(=O)CCNC(=O)C(C)N(C)C(=O)C(C(C)C)N(C)C1=O` (stereo not given) (cyclo([ξLac(3-iPr)]PI[NMeV][NMeA][βAla]); configuration not given here), the GI50 in test [1] is 6.84 µM (inactive); in test [2], 23.9 µM (inactive); in [3] it was 0.593 µM (active); in test [4] it was 2.43 µM (inactive); in [5] it was 1.19 µM (inactive); in test [6] it was 4.68 µM (inactive). Besides, the GI50 in [7] was 9.84 µM (inactive); in test [8], 1.29 µM (inactive); in [9], > 21.5 µM (inactive); in [10], 15.5 µM (inactive); in test [11], 4.83 µM (inactive); in test [12] it was 4.82 µM (inactive). Moreover, the GI50 in test [13] was 1.11 µM (active); in [14], 3.16 µM (inactive); in [15], 4.58 µM (inactive); in test [16], 7.1 µM (inactive); in test [17] it was 1.83 µM (inactive); in test [18] it was 0.736 µM (active). The values for the GI50 in test [19] and in [20] were 6.55 µM (inactive) and 3.73 µM (inactive), respectively.

For the compound `CC1=C2C(=O)[C@H]3[C@@H](CC=C4C[C@@H](O)CC[C@@]43C)[C@@H]2CC[C@]12O[C@@H]1C[C@H](C)CN[C@H]1[C@H]2C` [JERVINE], the GI50 is > 40.1 µM (inactive) in [1]; > 41.2 µM (inactive) in test [2]; > 44.2 µM (inactive) in [3]; > 100 µM (inactive) in [4]; > 44.8 µM (inactive) in test [5]; > 100 µM (inactive) in test [6]. Besides, the GI50 in test [7] was > 42.3 µM (inactive); in test [8] it was > 100 µM (inactive); in [9], > 43.8 µM (inactive); in test [10], > 36.4 µM (inactive); in test [11] it was > 100 µM (inactive); in test [12] it was > 43 µM (inactive). The GI50 in [13] is > 41.1 µM (inactive); in test [14], > 61.9 µM (inactive); in test [15], > 41.3 µM (inactive); in [16] it was > 47.9 µM (inactive); in test [17] it was > 82.4 µM (inactive); in test [18], > 63.4 µM (inactive). For the same compound, the results for the GI50 in test [19] and in [20] were > 50.4 µM (inactive) and > 49.4 µM (inactive), respectively.
